Patent publication US9056888B2 (priority 2011, dated 2015)
Entries after “also recorded” stand apart in the source; their conditions may differ. Like-named read-outs stand apart in the source and are kept apart here.

Assays:
HIV-1 = assay: Infection inhibition assay, MAGIC-5B indicator cells; settings: Table 1
Experimental: The evaluation of HIV-1 inhibition was carried out using MAGIC-5B indicator cells, which stably express the β-galactosidase reporter gene cloned downstream of the HIV-1 LTR promoter. Cells were plated at 8×10^4 cells per well, in 24-well plates and exposed to HIV-1 (x ng p24). Forty-eight hours post-infection, viral infectivity was monitored by quantification of o-nitrophenyl β-D-galactopyranoside hydrolysis from cell lysates (kit). β-galactosidase activity was normalized according to total protein content in the cell lysate. Control wells containing virus and cells only (no drug) and cells only (no virus or drug) were also prepared.

[1] = Cytotoxicity, MTT assay (Table 1); assay type: cell-based; settings: mean
Experimental: The cellular toxicity of the different compounds was evaluated using the MTT assays. […] The selectivity index (SI) was defined as the ratio CC50: IC50 (Table 1).

[2] = system: HIV-1 VLP assembly (Pr55Gag); assay: microbe, parasite or virus in culture; assay type: cell-based; settings: for SI (ratio CC50:IC50): Table 2
Experimental: Aliquots of Sf9 cells (10^6) were infected with two recombinant baculoviruses at equal multiplicity of infection (MOI of 10 PFU/cell, each). One expressed the HIV-1 Gag precursor (AcMNPV-Pr55Gag or control, p6-deleted AcMNPV-GagΔp6), the other the control Vpr protein (AcMNPV-Vpr) or the LucVpr fusion (AcMNPV-LucVpr). […] To avoid any interference with a possible effect of DMSO, DMSO was kept constant in volume in the different samples. […] Cells were harvested at 48 h pi, and extracellular VLP released in the culture medium were quantitated using luciferase assay. Membrane-enveloped VLP were pelleted and resuspended in lysis KDT buffer (KDT: 0.1M potassium phosphate buffer, pH 7.8, 1 mM DTT, containing 0.2% Triton X100) for 30 min at 37° C. with vortexing every 10 min. Luciferase activity associated with VLP was measured as previously described [10], using a Lumat LB-9501 luminometer (Berthold Technologies, Bad Wildbad, Germany). […] To compensate for eventual negative effects of drugs on LucVpr expression, the luciferase activity was measured in the corresponding cell lysates, obtained after lysis of the pelleted cells with KDT buffer. The results were expressed as relative light units (RLU) per μg protein. The values of the ratio of VLP-associated to intracellular luciferase activity were plotted versus the inhibitor concentration.
Cell culture medium was then harvested at 48 h pi, subjected to the 2-step ultracentrifugation analysis, and each gradient fraction probed for Gag polyprotein and luciferase activity, as above. […] The gradient fractions corresponding to the peak of luciferase activity were pooled, and the VLP contained in these fractions were pelleted, lysed and assayed for luciferase content.
Drug treatment was maintained for a further 24 h, and VLP released in the cell culture medium were pelleted through a sucrose cushion [8]. The amounts of extracellular VLP recovered in the 48 h-pellets obtained in the presence of the different inhibitors were determined using the luciferase assays. After normalization to the luciferase activity determined in the corresponding cell lysates, the values of the ratio of VLP-incorporated to cell-associated luciferase activity were plotted versus the drug concentrations.

[3] = Cytotoxicity, MTT assay (Table 2); assay type: cell-based; settings: for CC50: MTT assay, mean
Experimental: The cellular toxicity of the different compounds was evaluated using the MTT assays. […] The selectivity index (SI) was defined as the CC50 to IC50 ratio.

CA-SP1 cleavage = assay: HIV-1 maturation inhibition assay, p25 (CA-SP1) to p24 (CA) processing in virion lysate; assay type: cell-based; settings: Western blot (FIG. 2)
Experimental: Two days after transfection, virus-containing supernatants were concentrated by ultracentrifugation through a layer of 20% sucrose at 25 000 rpm for 2 h30. Viral pellets were then resuspended in RIPA lysis buffer [10 mM Tris-HCl (pH 7.4), 1 mM EDTA, 100 mM NaCl, 1% Triton X-100, 0.1% SDS, 0.25% sodium deoxycholate, 0.2% phenylmethylsulfonyl fluoride (PMSF)]. Viral proteins were loaded on a 12.5% SDS-PAGE gel.
To further elucidate the mechanism of action, viral samples used for infection assays were subjected to biochemical characterization (FIG. 2).

HIV-1 virion morphology = assay: Thin-section electron microscopy of virions from pNL4-3 transfected 293T cells; assay type: cell-based; settings: pNL4-3, 5 μg/ml (FIG. 3)
Experimental: Two days after transfection, 293T cells were processed for thin-layer electron microscopy as follows: cells were fixed in situ with 2.5% glutaraldehyde in cacodylate buffer (pH 7.4) for 60 min at 4° C. Cells were then post-fixed with 2% osmium tetroxide, washed in cacodylate buffer containing 0.5% tanic acid, and embedded in epon (Embed-812, Electron Microscopy Sciences Inc.). Sections were counterstained with uranyl acetate and lead citrate and examined with an Hitachi H7100 transmission electron microscope.
In the absence of compounds, cells transfected with pNL4-3 produced virus particles with the classical mature morphology characterized by the presence of condensed, conical cores (FIG. 3A).

VLP assembly and budding [4] = assay: Electron microscopy of AcMNPV-Gag-infected Sf9 cells; assay type: cell-based, HIV-1; settings: 5 and 10 μg/ml for 24 h at 24 h pi
Experimental: Baculovirus-infected Sf9 cells were harvested at 48 h pi, pelleted, fixed with 2.5% glutaraldehyde in 0.1 M phosphate buffer, pH 7.5, post-fixed with osmium tetroxide (2% in H2O) and treated with 0.5% tannic acid solution in H2O. The specimens were dehydrated and embedded in Epon (Epon-812; Fulham, Latham, N.Y.). Ultrathin sections were stained with 2.6% alkaline lead citrate and 0.5% uranyl acetate in 50% ethanol, and post-stained with 0.5% uranyl acetate solution in H2O [8,9]. Grids were examined under a Jeol JEM-1400 electron microscope, equipped with an ORIUS™ digitalized camera (Gatan France, 78113-Grandchamp). For statistical EM analyses, a minimum of 30 grid squares containing 10 to 20 cell sections each were examined for counting VLP budding at the cell surface, or budding in intracellular vesicular compartment.
By contrast, control, untreated AcMNPV-Gag-infected Sf9 cells were decorated with VLP budding in abundance from the plasma membrane.

Pr55Gag = biological target: T1, Pr55Gag (Human immunodeficiency virus type 1 group M subtype B, UniProt P03348); assay: Chemical cross-linking of intracellular Pr55Gag with BS3; assay type: cell-based, HIV-1; settings: Sf9 cells, 10 μg/ml
T1 construct: AcMNPV-Pr55Gag expressed the full-length wild type (WT) Gag polyprotein (Pr55Gag); expressed in transfected cells; host or cells: Spodoptera frugiperda Sf9 cells infected with recombinant baculovirus AcMNPV-Pr55Gag
Experimental: Aliquots of recombinant baculovirus-infected Sf9 cells (5×10^5 cells) untreated or treated with 16 at 10 ug/ml for 24 h at 24 h pi were centrifuged at low speed, resuspended in 200 μl of PBS containing the cross-linker bis(sulfosuccinimidyl)suberate (BS3; Pierce Biotechnology, Rockford, Ill.) at increasing molarities, ranging from 0 to 50 mM [12], and incubated in this buffer for 30 min at room temperature (RT). Cell samples were then centrifuged, resuspended and lysed in 200 μl 0.015 M NaCl, 0.5 mM phosphate buffer pH 7.3 containing BS3 at the same molarites as in the original mixtures, and further incubated for 30 min at RT. Cell lysates were mixed with 30 μl 6 times concentrated (6×) SDS-sample buffer without β-mercaptoethanol, heated to 100° C. for 1 min, and Gag proteins analyzed by SDS-PAGE and immunoblotting. […]
To further analyse the mechanism of the effect of 16 on Gag polyprotein assembly, untreated and 16-treated (10 μg/ml), Pr55Gag-expressing Sf9 cells were incubated with increasing concentrations of the chemical cross-linker BS3 at 48 h pi for 30 min at room temperature, then lysed in hypotonic medium in the presence of BS3 used in the same range of concentrations. The oligomeric status of the Gag proteins was assessed by SDS-PAGE and Western blot analysis, using anti-Gag antibody, peroxidase-labeled complementary antibody and enhanced chemiluminescence (ECL). […]

VLP assembly and budding [5] = settings: 10 μg/ml (17 μM), previous study [8]; cited from earlier work
HIV-1 VLP = settings: read-out: IC50 previously determined using immuno-radiochemical assay of VLP; reference [8]; cited from earlier work
[6] = Human immunodeficiency virus 1, read-out: IC50, inhibition of HIV-1 VLP assembly, Sf9 cells, mean
[7] = Human immunodeficiency virus 1, read-out: IC50, inhibition of HIV-1 VLP assembly, Sf9 cells, mean ± SEM, n = 4

| Structure (SMILES) | SI (CC50/IC50 ratio) (HIV-1) | CC50 [1] | SI (ratio CC50:IC50) [2] | CC50 [3] | inhibition of conversion of uncleaved p25 (CA-SP1) to mature p24 (CA) (CA-SP1 cleavage) | virus morphology / virion maturation by EM (HIV-1 virion morphology) | also measured |
| --- | --- | --- | --- | --- | --- | --- | --- |
| C=C(C)[C@@H]1CC[C@]2(C(=O)O)CC[C@]3(C)[C@H](CC[C@@H]4[C@@]5(C)CC[C@H](O)C(C)(C)[C@@H]5CC[C@]43C)[C@@H]12 [BA, betulinic acid, reference compound] | 0.85 | 4.52 µM | 1.1 | 43.8 µM | – | – | – |
| C=C(C)[C@@H]1CC[C@]2(C(=O)NCC(=O)O)CC[C@]3(C)C(CCC4[C@@]5(C)CC[C@H](OC(=O)CC(C)(C)C(=O)O)C(C)(C)C5CC[C@]43C)C12 (stereo partly drawn) [Compound 12, N-[3β-(3-carboxy-3-methylbutanoyloxy)-lup-20,29-en-28-oyl]-glycine] | – | – | – | – | – | – | IC50 ([2]; Sf9 cells, mean, read-out: IC50, inhibition of HIV-1 VLP assembly): 5.9 µM |
| C=C(C)[C@@H]1CC[C@]2(C(=O)NCC(=O)O)CC[C@]3(C)[C@H](CC[C@@H]4[C@@]5(C)CC[C@H](OC(=O)CC(C)(C)C(=O)O)C(C)(C)[C@@H]5CC[C@]43C)[C@@H]12 [Compound 12, N-[3β-(3-carboxy-3-methylbutanoyloxy)-lup-20,29-en-28-oyl]-glycine] | 309.37 | 49.5 µM | 5.3 | 31.1 µM | inhibit the CA-SP1 cleavage; also recorded: accumulation of p25 is observed | lacked conical cores | IC50 [2, 6]: 5.9 µM; IC50 [2, 7]: 3.8 ± 1.6 µg/mL; effect on VLP assembly and budding by EM (VLP assembly and budding [4]): net inhibitory effect on VLP assembly and budding |
| C=C(C)[C@@H]1CC[C@]2(C(=O)NC(CCCCNC(=O)OC(C)(C)C)C(=O)O)CC[C@]3(C)[C@H](CC[C@@H]4[C@@]5(C)CC[C@H](OC(=O)CC(C)(C)C(=O)O)C(C)(C)[C@@H]5CC[C@]43C)[C@@H]12 (stereo partly drawn) [Compound 15, N^2—[O^3-(3-carboxy-3-methylbutyryl)betulinyl]-N^6-Boc-L-lysine] | 199.41 | 33 µM | 13.0 | 24.7 µM | inhibit the CA-SP1 cleavage; also recorded: accumulation of p25 is observed | lacked conical cores | IC50 [2, 6]: 1.9 µM; IC50 [2, 7]: 1 to 2 µg/mL; IC50, inhibition of HIV-1 VLP assembly ([2]; Sf9 cells, mean ± SEM, n = 4): 1.6 ± 0.5 µg/mL; effect on VLP assembly and budding by EM (VLP assembly and budding [4]): net inhibitory effect on VLP assembly and budding |
| C=C(C)[C@@H]1CC[C@]2(C(=O)NCCN)CC[C@]3(C)C(CCC4[C@@]5(C)CC[C@H](OC(=O)CC(C)(C)C(=O)O)C(C)(C)C5CC[C@]43C)C12 (stereo partly drawn) [Compound 16, 4-({28-[(2-aminoethyl)amino]-28-oxolup-20,29-en-3β-yl}oxy)-2,2-dimethyl-4-oxobutanoic acid] | – | – | – | – | – | – | level of cytotoxicity compared to the other drugs [3]: lowest level of cytotoxicity |
| C=C(C)[C@@H]1CC[C@]2(C(=O)NCCN)CC[C@]3(C)[C@H](CC[C@@H]4[C@@]5(C)CC[C@H](OC(=O)CC(C)(C)C(=O)O)C(C)(C)[C@@H]5CC[C@]43C)[C@@H]12 [Compound 16, 4-({28-[(2-aminoethyl)amino]-28-oxolup-20,29-en-3β-yl}oxy)-2,2-dimethyl-4-oxobutanoic acid] | – | 33.9 µM | – | 120 µM | inhibit the CA-SP1 cleavage; also recorded: accumulation of p25 is observed | lacked conical cores | Gag oligomerization status after BS3 cross-linking (Pr55Gag): favored the occurrence and/or the stability and persistence of Gag trimers |
| C=C(C)[C@@H]1CC[C@]2(C(=O)NC(CCCCN)C(=O)O)CC[C@]3(C)[C@H](CC[C@@H]4[C@@]5(C)CC[C@H](OC(=O)CC(C)(C)C(=O)O)C(C)(C)[C@@H]5CC[C@]43C)[C@@H]12 (stereo partly drawn) [Compound 17, N^2-[3β-(3-carboxy-3-methylbutanoyloxy)lup-20,29-en-28-oyl]-L-lysine] | – | – | – | – | – | – | VLP / particle assembly inhibition (in words) ([2]; FIG. 6): resembled that of 12 |
| C=C(C)[C@@H]1CC[C@]2(C(=O)O)CC[C@]3(C)[C@H](CC[C@@H]4[C@@]5(C)CC[C@H](OC(=O)CC(C)(C)C(=O)O)C(C)(C)[C@@H]5CC[C@]43C)[C@@H]12 [DSB, 3-O-(3′,3′-dimethylsuccinyl)-betulinic acid, reference compound] | – | – | – | – | – | lacked conical cores | IC50 ([2]; Human immunodeficiency virus 1, read-out: IC50, VLP formation): 3.8 to 4.2 µM; IC50 ([2]; Human immunodeficiency virus 1, read-out: IC50, inhibition of HIV-1 VLP assembly): 3 ± 1 µg/mL; IC50 ([2]; Human immunodeficiency virus 1, read-out: concentration for 50% inhibition of VLP formation): 2.2 to 2.5 µg/mL; inhibition of conversion of uncleaved p25 (CA-SP1) to mature p24 (CA) (CA-SP1 cleavage; listed as 2): inhibit the CA-SP1 cleavage; also recorded: accumulation of p25 is observed; effect on VLP budding and egress (VLP assembly and budding [5]): totally abolished VLP budding and egress; IC50 (HIV-1 VLP): 8 to 10 µM |
